Several values for one entry are separate records, joined by “and”; a condition that tells them apart may be missing. Equal entries are not always repeated.
Tests used:
Assay in all cases: radiometric filter-binding kinase assay, Kinase HotSpot
Settings in all cases: compound 0.5 µM; ATP 10 µM
PIM1 (human) = PIM1 (human) (UniProt P11309)
ERBB4 (human) = ERBB4 (human) (UniProt Q15303)
CSNK1A1 (human) = CSNK1A1 (human) (UniProt P48729)
MAP3K10 (human) = MAP3K10 (human) (UniProt Q02779)
MELK (human) = MELK (human) (UniProt Q14680)
Chain of MELK (human) (Q14680 whole entry, looked up): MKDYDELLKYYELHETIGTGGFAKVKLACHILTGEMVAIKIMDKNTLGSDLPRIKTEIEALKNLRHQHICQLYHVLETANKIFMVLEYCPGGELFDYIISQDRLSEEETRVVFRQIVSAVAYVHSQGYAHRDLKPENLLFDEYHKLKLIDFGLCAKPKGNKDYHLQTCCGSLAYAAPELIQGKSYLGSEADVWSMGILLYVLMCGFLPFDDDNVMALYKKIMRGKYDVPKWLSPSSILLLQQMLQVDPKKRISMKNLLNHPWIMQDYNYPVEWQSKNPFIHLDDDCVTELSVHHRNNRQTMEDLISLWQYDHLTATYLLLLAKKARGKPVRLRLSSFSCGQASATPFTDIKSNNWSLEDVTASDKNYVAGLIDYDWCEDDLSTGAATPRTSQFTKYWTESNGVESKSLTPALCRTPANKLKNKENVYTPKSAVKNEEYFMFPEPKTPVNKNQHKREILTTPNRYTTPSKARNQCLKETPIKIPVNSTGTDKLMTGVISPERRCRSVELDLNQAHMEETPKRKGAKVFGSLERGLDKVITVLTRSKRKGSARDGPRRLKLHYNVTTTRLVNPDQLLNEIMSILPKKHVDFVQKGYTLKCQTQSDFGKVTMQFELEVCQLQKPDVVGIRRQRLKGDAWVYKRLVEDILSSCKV

NUAK2 (human) = NUAK2 (human) (UniProt Q9H093)
PAK4 (human) = PAK4 (human) (UniProt O96013)
SRPK2 (human) = SRPK2 (human) (UniProt P78362)
AXL (human) = AXL (human) (UniProt P30530)
CSNK2A2 (human) = CSNK2A2 (human) (UniProt P19784)
TSSK2 (human) = TSSK2 (human) (UniProt Q96PF2)
TAOK3 (human) = TAOK3 (human) (UniProt Q9H2K8)
MST1R (human) = MST1R (human) (UniProt Q04912)
CAMKK1 (human) = CAMKK1 (human) (UniProt Q8N5S9)
Chain of CAMKK1 (human) (Q8N5S9 whole entry, looked up): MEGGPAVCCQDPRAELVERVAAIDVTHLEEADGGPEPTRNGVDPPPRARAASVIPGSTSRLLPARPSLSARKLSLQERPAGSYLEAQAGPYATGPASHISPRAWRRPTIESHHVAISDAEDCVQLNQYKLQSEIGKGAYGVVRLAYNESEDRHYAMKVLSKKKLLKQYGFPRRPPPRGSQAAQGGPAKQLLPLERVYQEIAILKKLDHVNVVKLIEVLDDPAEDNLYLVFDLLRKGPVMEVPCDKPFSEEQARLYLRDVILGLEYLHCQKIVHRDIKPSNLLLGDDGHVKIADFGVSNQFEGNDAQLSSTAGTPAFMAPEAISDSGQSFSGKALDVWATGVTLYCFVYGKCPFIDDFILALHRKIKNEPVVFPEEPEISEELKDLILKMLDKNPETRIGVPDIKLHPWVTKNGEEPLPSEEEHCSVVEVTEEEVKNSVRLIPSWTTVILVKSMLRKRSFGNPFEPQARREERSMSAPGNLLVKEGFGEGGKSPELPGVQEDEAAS

STK25 (human) = STK25 (human) (UniProt O00506)
STK10 (human) = STK10 (human) (UniProt O94804)
NUAK1 (human) = NUAK1 (human) (UniProt O60285)
EPHA4 (human) = EPHA4 (human) (UniProt P54764)
BRAF (human) = BRAF (human) (UniProt P15056)
MAPKAPK2 (human) = MAPKAPK2 (human) (UniProt P49137)
Chain of MAPKAPK2 (human) (P49137 whole entry, looked up): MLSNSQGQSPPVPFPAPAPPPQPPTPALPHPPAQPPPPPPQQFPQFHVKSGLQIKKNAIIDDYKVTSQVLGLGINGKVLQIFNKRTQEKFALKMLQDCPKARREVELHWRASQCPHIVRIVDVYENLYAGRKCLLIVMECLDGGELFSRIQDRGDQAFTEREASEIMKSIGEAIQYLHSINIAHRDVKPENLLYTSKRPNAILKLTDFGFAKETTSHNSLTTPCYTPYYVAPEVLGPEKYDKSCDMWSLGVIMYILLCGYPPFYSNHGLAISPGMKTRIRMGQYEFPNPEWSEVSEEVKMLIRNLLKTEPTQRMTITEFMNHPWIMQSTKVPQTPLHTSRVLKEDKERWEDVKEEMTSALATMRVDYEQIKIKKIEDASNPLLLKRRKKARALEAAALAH

RPS6KA3 KD1 KD2 (human) = RPS6KA3 KD1 KD2 (human) (UniProt P51812)
MAPK11 (human) = MAPK11 (human) (UniProt Q15759)
CDK3 CCNE1 (human) = CDK3 CCNE1 (human) (UniProt Q00526+P24864)
HIPK4 (human) = HIPK4 (human) (UniProt Q8NE63)
LRRK2 (human) = LRRK2 (human) (UniProt Q5S007)
Chain of LRRK2 (human) (Q5S007 whole entry, looked up): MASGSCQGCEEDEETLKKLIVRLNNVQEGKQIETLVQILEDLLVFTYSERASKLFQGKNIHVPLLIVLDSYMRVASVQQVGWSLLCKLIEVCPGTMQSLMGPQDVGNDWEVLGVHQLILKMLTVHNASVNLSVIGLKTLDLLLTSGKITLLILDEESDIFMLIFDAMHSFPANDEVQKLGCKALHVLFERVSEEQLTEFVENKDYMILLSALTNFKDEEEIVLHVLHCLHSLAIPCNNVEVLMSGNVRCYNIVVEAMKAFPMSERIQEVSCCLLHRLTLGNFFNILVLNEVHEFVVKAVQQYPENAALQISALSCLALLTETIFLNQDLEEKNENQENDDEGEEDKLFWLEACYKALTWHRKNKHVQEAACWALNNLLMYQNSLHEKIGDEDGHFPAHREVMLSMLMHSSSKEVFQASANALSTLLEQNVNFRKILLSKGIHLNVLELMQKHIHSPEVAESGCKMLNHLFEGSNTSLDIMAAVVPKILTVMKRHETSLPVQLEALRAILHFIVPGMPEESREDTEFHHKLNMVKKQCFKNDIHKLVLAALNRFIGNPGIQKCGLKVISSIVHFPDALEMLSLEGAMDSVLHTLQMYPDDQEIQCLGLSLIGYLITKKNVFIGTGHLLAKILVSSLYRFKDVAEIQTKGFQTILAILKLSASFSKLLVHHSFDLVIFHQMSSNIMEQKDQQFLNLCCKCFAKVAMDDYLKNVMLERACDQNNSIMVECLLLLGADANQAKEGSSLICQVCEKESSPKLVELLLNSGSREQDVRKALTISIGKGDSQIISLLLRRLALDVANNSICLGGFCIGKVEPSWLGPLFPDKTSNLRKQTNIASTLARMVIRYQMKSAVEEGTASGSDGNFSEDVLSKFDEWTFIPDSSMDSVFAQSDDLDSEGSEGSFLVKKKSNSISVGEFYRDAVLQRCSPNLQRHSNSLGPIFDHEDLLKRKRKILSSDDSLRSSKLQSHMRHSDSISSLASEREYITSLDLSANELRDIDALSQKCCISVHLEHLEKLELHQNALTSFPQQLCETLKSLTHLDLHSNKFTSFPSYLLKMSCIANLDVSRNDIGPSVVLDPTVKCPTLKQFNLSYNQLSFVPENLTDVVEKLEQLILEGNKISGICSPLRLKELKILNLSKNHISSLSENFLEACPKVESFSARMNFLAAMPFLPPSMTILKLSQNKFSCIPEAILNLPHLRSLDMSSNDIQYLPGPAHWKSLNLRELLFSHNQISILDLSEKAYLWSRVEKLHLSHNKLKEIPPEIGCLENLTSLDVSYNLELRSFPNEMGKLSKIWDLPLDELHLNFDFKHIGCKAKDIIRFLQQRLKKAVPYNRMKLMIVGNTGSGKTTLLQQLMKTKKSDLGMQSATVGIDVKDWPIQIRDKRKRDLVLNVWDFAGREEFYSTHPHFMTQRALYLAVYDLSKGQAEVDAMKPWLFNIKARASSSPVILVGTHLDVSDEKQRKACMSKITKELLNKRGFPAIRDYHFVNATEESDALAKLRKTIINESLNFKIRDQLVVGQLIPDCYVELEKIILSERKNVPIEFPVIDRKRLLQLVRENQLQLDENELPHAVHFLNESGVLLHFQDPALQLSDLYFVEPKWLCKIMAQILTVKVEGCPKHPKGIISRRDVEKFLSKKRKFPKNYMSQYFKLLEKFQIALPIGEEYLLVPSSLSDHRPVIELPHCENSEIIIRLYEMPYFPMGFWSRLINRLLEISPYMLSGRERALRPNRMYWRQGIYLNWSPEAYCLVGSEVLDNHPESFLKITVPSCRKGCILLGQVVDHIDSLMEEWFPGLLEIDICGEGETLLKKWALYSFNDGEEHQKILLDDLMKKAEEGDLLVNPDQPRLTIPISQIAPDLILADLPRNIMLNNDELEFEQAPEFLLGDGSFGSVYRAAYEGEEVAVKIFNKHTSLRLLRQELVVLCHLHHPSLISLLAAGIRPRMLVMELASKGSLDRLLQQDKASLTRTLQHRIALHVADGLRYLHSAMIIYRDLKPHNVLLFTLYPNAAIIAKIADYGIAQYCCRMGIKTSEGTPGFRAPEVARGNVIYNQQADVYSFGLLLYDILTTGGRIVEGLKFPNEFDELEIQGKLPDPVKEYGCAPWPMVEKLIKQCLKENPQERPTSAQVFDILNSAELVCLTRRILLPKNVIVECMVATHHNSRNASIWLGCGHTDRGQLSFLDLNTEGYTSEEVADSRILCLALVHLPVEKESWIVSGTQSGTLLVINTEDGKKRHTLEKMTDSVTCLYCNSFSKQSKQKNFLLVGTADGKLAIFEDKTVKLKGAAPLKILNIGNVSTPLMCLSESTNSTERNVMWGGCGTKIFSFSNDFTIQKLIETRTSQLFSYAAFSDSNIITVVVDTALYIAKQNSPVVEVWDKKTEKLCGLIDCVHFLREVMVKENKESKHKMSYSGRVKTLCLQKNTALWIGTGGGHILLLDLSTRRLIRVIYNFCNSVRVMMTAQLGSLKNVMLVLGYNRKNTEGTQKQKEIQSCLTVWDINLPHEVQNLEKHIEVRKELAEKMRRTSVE

IKBKE (human) = IKBKE (human) (UniProt Q14164)
WNK3 (human) = WNK3 (human) (UniProt Q9BYP7)
MAPK3 (human) = MAPK3 (human) (UniProt P27361)
PAK6 (human) = PAK6 (human) (UniProt Q9NQU5)
TEK (human) = TEK (human) (UniProt Q02763)
KIT (human) = KIT (human) (UniProt P10721)
SGK2 (human) = SGK2 (human) (UniProt Q9HBY8)
Chain of SGK2 (human) (Q9HBY8 whole entry, looked up): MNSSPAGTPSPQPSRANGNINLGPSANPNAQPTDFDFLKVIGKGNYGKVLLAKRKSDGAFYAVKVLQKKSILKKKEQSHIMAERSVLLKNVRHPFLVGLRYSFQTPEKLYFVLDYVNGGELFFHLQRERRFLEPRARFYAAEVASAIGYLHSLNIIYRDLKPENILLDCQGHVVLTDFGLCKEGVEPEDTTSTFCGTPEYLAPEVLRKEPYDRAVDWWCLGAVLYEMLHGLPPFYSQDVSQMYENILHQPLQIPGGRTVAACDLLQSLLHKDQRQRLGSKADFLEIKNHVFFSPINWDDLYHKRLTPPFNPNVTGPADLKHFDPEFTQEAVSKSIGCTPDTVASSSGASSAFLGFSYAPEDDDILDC

MAP3K9 (human) = MAP3K9 (human) (UniProt P80192)
PRKD2 (human) = PRKD2 (human) (UniProt Q9BZL6)
STK39 (human) = STK39 (human) (UniProt Q9UEW8)
AURKB (human) = AURKB (human) (UniProt Q96GD4)
CLK2 (human) = CLK2 (human) (UniProt P49760)
PRKG1 (human) = PRKG1 (human) (UniProt Q13976)
CDK6 CCND1 (human) = CDK6 CCND1 (human) (UniProt Q00534+P24385)
Chain of CDK6 CCND1 (human) (P24385 whole entry, looked up): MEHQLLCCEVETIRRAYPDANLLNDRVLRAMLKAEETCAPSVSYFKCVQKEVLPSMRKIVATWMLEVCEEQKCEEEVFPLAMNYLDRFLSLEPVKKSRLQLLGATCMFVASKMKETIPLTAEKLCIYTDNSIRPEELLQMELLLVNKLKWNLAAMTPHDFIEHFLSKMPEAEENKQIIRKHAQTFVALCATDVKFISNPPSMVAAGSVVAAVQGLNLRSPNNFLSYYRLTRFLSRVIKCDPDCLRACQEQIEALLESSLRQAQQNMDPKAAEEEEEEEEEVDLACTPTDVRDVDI
Chain of CDK6 CCND1 (human) (Q00534 whole entry, looked up): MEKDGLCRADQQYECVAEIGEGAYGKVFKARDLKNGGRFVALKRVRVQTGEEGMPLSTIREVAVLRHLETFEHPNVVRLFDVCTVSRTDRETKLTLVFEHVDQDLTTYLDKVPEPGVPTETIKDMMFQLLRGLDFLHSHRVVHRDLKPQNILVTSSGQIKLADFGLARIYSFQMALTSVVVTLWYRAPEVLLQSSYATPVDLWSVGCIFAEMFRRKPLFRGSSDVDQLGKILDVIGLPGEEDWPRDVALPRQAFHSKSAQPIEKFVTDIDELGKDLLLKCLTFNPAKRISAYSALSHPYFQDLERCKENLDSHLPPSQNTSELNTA

AKT2 (human) = AKT2 (human) (UniProt P31751)

Row | Structure (SMILES) | residual activity (PIM1 (human)) [%] | residual activity (ERBB4 (human)) [%] | residual activity (MAP3K10 (human)) [%] | residual activity (MELK (human)) [%] | residual activity (NUAK2 (human)) [%] | residual activity (SRPK2 (human)) [%] | residual activity (AXL (human)) [%] | residual activity (CSNK2A2 (human)) [%] | residual activity (TSSK2 (human)) [%] | residual activity (TAOK3 (human)) [%] | residual activity (MST1R (human)) [%] | residual activity (CAMKK1 (human)) [%] | residual activity (STK25 (human)) [%] | residual activity (STK10 (human)) [%] | residual activity (NUAK1 (human)) [%] | residual activity (EPHA4 (human)) [%] | residual activity (BRAF (human)) [%] | residual activity (MAPKAPK2 (human)) [%] | residual activity (MAPK11 (human)) [%] | residual activity (CDK3 CCNE1 (human)) [%] | further results
1 | CC#CC(=O)Nc1cc2c(Nc3ccc(F)c(Cl)c3)ncnc2cn1 | 98.6 | 1.95 | 98.9 | 101 | 95.4 | 69.2 | 100 | 96.5 | 100 | 110 | 104 | 124 | 97.1 | 72.6 | 98.1 | 94.6 | 82.1 | 104 | 96.2 | 96.8 | residual activity (CSNK1A1 (human)): 107%; residual activity (PAK4 (human)): 107%; residual activity (RPS6KA3 KD1 KD2 (human)): 97.5%; residual activity (HIPK4 (human)): 99.7%; residual activity (LRRK2 (human)): 92.3%; residual activity (IKBKE (human)): 98.9%; residual activity (WNK3 (human)): 95.1%; residual activity (MAPK3 (human)): 100%; residual activity (PAK6 (human)): 96.9%; residual activity (TEK (human)): 99.7%; residual activity (KIT (human)): 98.5%; residual activity (SGK2 (human)): 98.3%; residual activity (MAP3K9 (human)): 95.8%; residual activity (PRKD2 (human)): 97.6%; residual activity (STK39 (human)): 91.3%; residual activity (AURKB (human)): 101%; residual activity (CLK2 (human)): 100%; residual activity (PRKG1 (human)): 91.7% and 97.6%; residual activity (CDK6 CCND1 (human)): 99%
2 | O=S(=O)(c1cccc2cnccc12)N1CCCNCC1 | 77 | 101 | 88.3 | 78.6 | 83.5 | 83.9 | 97.2 | 91.9 | 80.2 | 97.3 | 92.7 | 108 | 84.8 | 103 | 73.2 | 98.5 | 97.7 | 101 | 91.9 | 76.6 | residual activity (AKT2 (human)): 115%; residual activity (HIPK4 (human)): 103%; residual activity (LRRK2 (human)): 94.2%; residual activity (WNK3 (human)): 98.1%; residual activity (MAPK3 (human)): 96.1%; residual activity (PAK6 (human)): 87%; residual activity (TEK (human)): 98.4%; residual activity (KIT (human)): 96.7%; residual activity (SGK2 (human)): 91.9%; residual activity (MAP3K9 (human)): 94.4%; residual activity (PRKD2 (human)): 85%; residual activity (STK39 (human)): 103%; residual activity (AURKB (human)): 98.8%; residual activity (CLK2 (human)): 95.1%; residual activity (PRKG1 (human)): 79.6% and 87.7%; residual activity (CDK6 CCND1 (human)): 86.4%
3 | CC[n+]1c(/C=C/N(C)c2ccccc2)n(-c2ccccc2)c2ccc(-c3nc4ccccc4s3)cc21 | 102 | 102 | 103 | 93.4 | 93.3 | 105 | 101 | 105 | 98.4 | 116 | 94.4 | 115 | 96.5 | 101 | 96.1 | 91.9 | 100 | 97.2 | 101 | 92.2 | residual activity (AKT2 (human)): 99.6%; residual activity (CSNK1A1 (human)): 106%; residual activity (PAK4 (human)): 109%; residual activity (RPS6KA3 KD1 KD2 (human)): 109%; residual activity (HIPK4 (human)): 102%; residual activity (LRRK2 (human)): 95.5%; residual activity (IKBKE (human)): 94.7%; residual activity (WNK3 (human)): 85.9%; residual activity (MAPK3 (human)): 112%; residual activity (PAK6 (human)): 95.5%; residual activity (TEK (human)): 96%; residual activity (KIT (human)): 104%; residual activity (SGK2 (human)): 123%; residual activity (MAP3K9 (human)): 98.3%; residual activity (PRKD2 (human)): 102%; residual activity (STK39 (human)): 81.1%; residual activity (AURKB (human)): 93.9%; residual activity (CLK2 (human)): 98.4%; residual activity (PRKG1 (human)): 104% and 105%; residual activity (CDK6 CCND1 (human)): 103%
4 | Cc1ccc(NC2=CC(=O)c3sc(C)nc3C2=O)cc1 | 96.8 | 98.5 | 94.6 | 93.2 | 105 | 101 | 97 | 87.8 | 98.3 | 98.9 | 88.9 | 108 | 93.4 | 95 | 93 | 86.5 | 96.7 | 97.6 | 102 | 88.5 | residual activity (AKT2 (human)): 91.3%; residual activity (CSNK1A1 (human)): 106%; residual activity (PAK4 (human)): 105%; residual activity (RPS6KA3 KD1 KD2 (human)): 104%; residual activity (HIPK4 (human)): 93.7%; residual activity (LRRK2 (human)): 102%; residual activity (IKBKE (human)): 102%; residual activity (WNK3 (human)): 102%; residual activity (MAPK3 (human)): 100%; residual activity (PAK6 (human)): 110%; residual activity (TEK (human)): 95.9%; residual activity (KIT (human)): 74.7%; residual activity (SGK2 (human)): 94.6%; residual activity (MAP3K9 (human)): 86.7%; residual activity (PRKD2 (human)): 87.7%; residual activity (STK39 (human)): 93.4%; residual activity (AURKB (human)): 89.8%; residual activity (CLK2 (human)): 83.6%; residual activity (PRKG1 (human)): 104% and 96.3%; residual activity (CDK6 CCND1 (human)): 101%
5 | COc1ccc(COc2ccc(Cc3cnc(N)nc3N)cc2OC)cc1 | 104 | 110 | 96.4 | 102 | 98.1 | 87.4 | 96.4 | 97.4 | 109 | 102 | 104 | 115 | 97 | 100 | 106 | 105 | 99 | 103 | 98.7 | 82.9 | residual activity (AKT2 (human)): 102%; residual activity (CSNK1A1 (human)): 97.9%; residual activity (PAK4 (human)): 101%; residual activity (RPS6KA3 KD1 KD2 (human)): 105%; residual activity (HIPK4 (human)): 97.7%; residual activity (LRRK2 (human)): 92.6%; residual activity (IKBKE (human)): 96.7%; residual activity (WNK3 (human)): 100%; residual activity (MAPK3 (human)): 99.1%; residual activity (PAK6 (human)): 94.9%; residual activity (TEK (human)): 101%; residual activity (KIT (human)): 106%; residual activity (SGK2 (human)): 97.5%; residual activity (MAP3K9 (human)): 105%; residual activity (PRKD2 (human)): 99.4%; residual activity (STK39 (human)): 87.6%; residual activity (AURKB (human)): 104%; residual activity (CLK2 (human)): 94.3%; residual activity (PRKG1 (human)): 91.7% and 98.3%; residual activity (CDK6 CCND1 (human)): 101%

— the kinase profiling compilation of Christmann-Franck et al. (2016)
